Laboratory results published in patent US20160120950A1, “Pharmaceutical Formulations Comprising Incretin Mimetic Peptide and Aprotic Polar Solvent” (Amylin Pharmaceuticals, LLC, priority 2008, published 2016).

Experiments:
cloned GLP-1 receptor = details: cells transfected with the cloned GLP-1 receptor; cited from earlier work
[1] = Stability of exendin-4 in DMSO and DMSO/0.5% water, SEC-HPLC potency (Example 1); format: physicochemical; details: in DMSO and DMSO with 0.5% water, up to 6 months at 5, 25, 40° C.
Description: (§1) The stability of exendin-4 in DMSO and DMSO with 0.5% water added may be evaluated as follows. The evaluation may be based on the stability of exendin-4 samples stored at 5, 25, and 40° C. for up to 6 months. Further, the stability of exendin-4 in DMSO, as compared to aqueous buffers at a pH of 4.5 may be evaluated.
(§2) Three HPLC methods may be used to analyze the samples: size exclusion HPLC (SEC-HPLC) to determine potency (mg/ml) and two methods to evaluate purity (%), a strong cation exchange (SCX) method and a reversed-phase (RP) method. The methods may be adapted as necessary to achieve appropriate sample analysis. Additionally, the water content of the samples may be evaluated using a suitable Karl Fischer analytical procedure.
For example, SEC-HPLC can be used to measure the potency of an exendin-4 solution by external standard assay, based on total peptide content of the exendin-containing solution at 214 nm, as compared to qualified reference standard solutions. The identity, potency and label strength of exendin-4 can be established by comparison of the retention times of the exendin-4 peaks in the sample and reference standard solutions.
For a six-month delivery period, approximately 3600 μg of exendin-4 may be desirable based on a 20 μg/day dose. Assuming a representative delivery reservoir of approximately 150 μL, a concentration of about 25 mg/mL may be desirable. […]

[2] = Stability of exendin-4 in DMSO, DMSO/0.5% water and aqueous buffer pH 4.5, SCX-HPLC purity (Example 1); format: physicochemical; details: FIGS. 3 and 4, 25° C. and 40° C.
Description: as §1, §2
For a six-month delivery period, approximately 3600 μg of exendin-4 may be desirable based on a 20 μg/day dose. Assuming a representative delivery reservoir of approximately 150 μL, a concentration of about 25 mg/mL may be desirable. Further, proteins and peptides are commonly lyophilized and often include some residual moisture. As such, the effect of water on peptide stability may be investigated, and samples may be prepared in neat DMSO and in DMSO with 0.5% water added.
This concentration of water will depress the 18.6° C. freezing point of DMSO to only about 17.5° C. […]

[3] = Stability of exendin-4 in DMSO formulations, text summary of SCX- and RP-HPLC purity (Example 1, FIGS. 1 and 2); format: physicochemical
Description: as §1, §2
More particularly, 25 mg/mL samples of exendin-4 in neat DMSO and DMSO/0.5% water are prepared in N2 atmosphere and held at 5, 25, and 40° C. for 6 months (abbreviated as “mos.”).
Exendin-4 may be formulated in DMSO and DMSO spiked with 0.5% water. […] Exendin-4 purity is reduced about 28% from initial values after 6 months at 40° C. At 25° C., the purity is decreased about 3 to 4% over the same time period. (See FIGS. 1 and 2). However, at 5° C. the purity remains within 0.4 to 0.6% of initial purity values. […] By comparison to aqueous product stability (FIGS. 3 and 4), it is apparent that exendin-4 stability is improved in the aprotic, polar solvent DMSO.

[4] = Exendin-4 stability in aprotic, polar solvent systems, SCX-Purity (Example 2); format: physicochemical; details: 10% w/w water (0.67 mole fraction DMSO)
Description: The stability of exendin-4 in other aprotic, polar solvents and in DMSO-based co-solvent systems may also be evaluated. The evaluation may be based on the stability of exendin-4 samples stored at 5, 25, and 37° C. for up to 6 months. In addition to dimethyl sulfoxide (DMSO), solvents for evaluation include water, dimethyl acetamide (DMA), dimethyl formamide (DMF), N-methylpyrrolidone (NMP), Propylene carbonate, and ethyl acetate.
as §2, with “The methods may be adapted as necessary to achieve appropriate sample analysis.” left out
Nonaqueous Solvents: The stability of exendin-4 in aprotic, polar solvents with freezing points lower than 0° C. may be evaluated. […]
Co-solvent System with Water: Water at approximately 8% w/w depresses the freezing point of DMSO to just below 0° C. To provide additional protection against freezing, a 10% w/w water solution may be evaluated. […]
Co-solvent Systems with Aprotic, Polar Solvents: Other solvents can also be used to depress the freezing point of DMSO. […] Appropriate amounts of the non-aqueous solvent may first be determined. Next the solubility of exendin-4 may be evaluated by visual inspection in the co-solvent mixture. […]

changes in potency [1]	stability in DMSO by comparison to aqueous product stability [2]	difference due to the presence of 0.5% water ([3]; DMSO vs DMSO spiked with 0.5% water)	purity reduced from initial values ([3]; in DMSO and DMSO with 0.5% water, 6 months at 40° C.)	stability of exendin-4 in DMSO solvent solution containing 10% w/w water [4]	Substance	activity at the cloned GLP-1 receptor (cAMP) (cloned GLP-1 receptor)
					exendin[9-39]	antagonist
Essentially no changes	improved	no substantial difference	about 28%	enhanced	Exendin-4	agonist
